Results from patent US9012407B2, “Therapies which act on neuropeptide S receptors” (The Regents of the University of California, priority 2004, dated 2015).

How the values were obtained:
C57Bl/6 mice [1] = assay: Locomotor activity after i.c.v. administration in naive and habituated mice; format: in vivo; details: for locomotor activity: naive and habituated mice, 60 min observation
Description: In view of the NPSR sites of expression and the prominent expression of the NPS precursor in LC area, we hypothesized that NPS may be involved in arousal and anxiety. To start this investigation, we tested the effects of NPS on locomotor activity in both naive and habituated mice (FIG. 7A).
(§1) Male C57Bl/6 mice (National Cancer Institute, Bethesda, MD), age 10-14 weeks, were group-housed (4 animals per cage) under controlled conditions (temperature 21±2° C.; relative humidity 50-60%; 12-hour light-dark cycle, lights on 6:00 AM) with free access to food and water. Prior to drug injections, mice were briefly anesthetized with halothane. NPS was dissolved in phosphate-buffered saline (PBS, pH 7.4) and injected i.c.v. (total volume: 2 μl) as described before (Laursen and Belknap, 1986). Mice were allowed to recover for 5 min and then placed in the observation apparatus.
(§2) Locomotion was monitored in rectangular plexiglass boxes (60×40×50 cm). Horizontal activity was measured over 60 min by 18×12 infrared sensors placed 2 cm above the floor. A second row of sensors at 8 cm above the floor was used to record rearing events. The imaginary central zone was defined as a 30×20 cm rectangle in the middle of each observation area. Data were collected using MatLab (Mathworks, Natick, Mass.). Experimental procedures for open field, elevated plus-maze and light-dark box were described previously (Köster et al., 1999). Marble burying was measured in mice placed individually in polypropylene cages (30×18×12 cm) containing 18 glass marbles (1.5 cm diameter) evenly spaced on 5 cm deep rodent bedding (bed-o'cob, The Andersons Inc., Maumee, Ohio) (Njung'e and Handley, 1991). No food or water was present during the observation period. Cages were covered with a metal grid and the number of marbles covered at least two-thirds was counted after 30 min.

NPSR C-alt = target: T1, NPSR C-alt (Homo sapiens, UniProt Q6W5P4); assay: CRE-luciferase reporter gene assay, HEK 293 cells, NPSR C-alt; format: cell-based; details: transiently transfected HEK cells; read-out: EC50, luciferase reporter induction
T1 construct: The C-terminal splice variant of NPSR (NPSR C-alt, GPRA isoform B); expressed in transfected cells; host or cells: HEK 293 cells carrying the CRE-luciferase reporter, transient transfection, pcDNA3.1 hygro
T1 sequence (Q6W5P4 1-377 isoform Q6W5P4-4): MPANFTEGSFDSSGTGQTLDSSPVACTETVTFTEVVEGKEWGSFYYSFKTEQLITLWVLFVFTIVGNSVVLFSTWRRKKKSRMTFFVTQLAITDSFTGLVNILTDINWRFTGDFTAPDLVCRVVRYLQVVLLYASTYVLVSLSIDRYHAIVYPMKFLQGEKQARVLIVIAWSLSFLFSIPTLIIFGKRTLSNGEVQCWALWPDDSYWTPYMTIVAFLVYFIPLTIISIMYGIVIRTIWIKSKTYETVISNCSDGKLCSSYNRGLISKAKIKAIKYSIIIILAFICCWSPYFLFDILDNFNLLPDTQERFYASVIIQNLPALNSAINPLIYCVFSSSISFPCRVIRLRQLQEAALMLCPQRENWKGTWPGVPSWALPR
Source text: HEK 293 cells were stably transfected with a reporter gene containing 6 copies of a cAMP response element (CRE; sequence […]) in front of a luciferase reporter gene (Promega) cloned into pcDNA3.1 neo. One stable clone showing robust induction of reporter gene expression after forskolin challenge was chosen for further experiments. The different NPSR isoform cDNAs (cloned into pcDNA3.1 hygro) were transfected into these cells using lipofectamine and stable clones were selected. The same cells and procedures were also used for transient transfection. For induction of reporter gene expression cells were plated in 96-well plates and incubated with agonist for 5 hours in serum-free medium, followed by aspiration of the medium and cell lysis with 25 mM Tris-phosphate, pH 7.8, 2 mM dithiothreitol, 2 mM 1,2-diaminocyclohexane-N,N,N′,N′,-tetraacetic acid, 10% glycerol, 1% Triton X-100. After one freeze-thaw cycle aliquots of supernatant were transferred to white clear-bottom 96-well plates (Greiner) and luciferase content was quantified by bioluminescence (Luc-Screen, Applied Biosystems). Plates were counted in a scintillation counter using bioluminescence settings (MicroBeta, Wallac-Perkin Elmer).

C57Bl/6 mice [2] = assay: Light-dark box; format: in vivo
Description: as §1, §2

Sprague-Dawley rats = assay: Sleep-wake EEG/EMG recording after i.c.v. administration in rats; format: in vivo; details: for share of first hour of recording spent in wakefulness: saline 45%
Description: Rats were implanted with a standard set of electrodes and electroencephalograms (EEG) and electromyograms (EMG) were recorded after i.c.v. administration of NPS. Polygraphic recordings of vigilance states indicate that rats treated with 0.1 nmole and 1.0 nmole of NPS spent up to 69% and 87%, respectively, of the first hour of recording in wakefulness, compared to 45% for saline treatment (F2,21=16.80; p<0.01) (FIG. 7B).
For sleep studies, adult male Sprague-Dawley rats (250-300 g) were implanted under halothane anesthesia (1-2%) with a stainless steel cannula for i.c.v. administration and a standard set of stainless steel screw electrodes for chronic sleep recordings as reported previously (Bourgin et al., 2000). Rats were injected with NPS or vehicle (5 μl) at the beginning of the light cycle and cortical activity was recorded over 6 hours. All animal experiments had been approved by the local IACUC committee and were done in accordance with federal regulations and guidelines on animal experimentation.

[3] = tested on: Colo205 human colon cancer cells; assay: Cell proliferation, [3H]-thymidine incorporation in Colo205 cells; format: cell-based
Description: Cells were seeded in 24-well plates and grown overnight to 60-70% confluency. Following 24 h serum-starvation, 2 μCi of methyl-[^3H] thymidine was added together with increasing concentrations of NPS. 500 nM PGE2 served as a positive control. After 3 h incubation cells were washed 3 times with PBS and then lysed with 0.5 N NaOH. The lysate was neutralized with 0.5 N HCl and aliquots were counted in a liquid scintillation counter for incorporated radioactivity.

C57Bl/6 mice [4] = assay: Marble-burying paradigm; format: in vivo; details: 30 min observation, 18 marbles per cage, i.c.v.
Source text: Many anxiolytic drugs increase exploratory activity in the open field, light-dark box or elevated plus maze paradigms. However, compounds stimulating locomotion could produce false-positive effects in these tests because the enhanced exploration could be secondary to the increase in general activity. In order to validate the observed anxiolytic-like effects of NPS, we tested increasing doses of NPS in the marble-burying paradigm. Mice tend to bury objects such as glass marbles present in their environment. Anxiolytic drugs such as benzodiazepines reduce the number of marbles buried over a fixed period of time. […]
Locomotion was monitored in rectangular plexiglass boxes (60×40×50 cm). Horizontal activity was measured over 60 min by 18×12 infrared sensors placed 2 cm above the floor. […] Marble burying was measured in mice placed individually in polypropylene cages (30×18×12 cm) containing 18 glass marbles (1.5 cm diameter) evenly spaced on 5 cm deep rodent bedding (bed-o'cob, The Andersons Inc., Maumee, Ohio) (Njung'e and Handley, 1991). […] Cages were covered with a metal grid and the number of marbles covered at least two-thirds was counted after 30 min.

[5] = i.c.v., rats, compared with saline

## NPS: neuropeptide S, endogenous NPSR ligand; species of the peptide not stated at the place of the result (SFRNGVGTGMKKTSFQRAKS)
C57Bl/6 mice [1]; 0.1 nmole i.c.v.
  locomotor activity: significant increase
C57Bl/6 mice [1]; 1 nmole i.c.v.
  locomotor activity: significant increase
C57Bl/6 mice [1]; 0.1 and 1 nmole i.c.v., mice
  total distance traveled, percentage of time moving, number of rearing events and center entries: significantly increased
NPSR C-alt
  EC50: 146 ± 15.1 nM
C57Bl/6 mice [2]; 0.03-3 nmole i.c.v.
  percentage of entries in the light area: higher percentage
  time in the light area: prolonged time
C57Bl/6 mice [2]; 0.1-3 nmole i.c.v.
  number of transitions between the two compartments: significantly increased
C57Bl/6 mice [2]; 0.3-3 nmole i.c.v.
  latency until first exit from the dark compartment: significantly reduced
Sprague-Dawley rats; 0.1 nmole i.c.v., rats
  share of first hour of recording spent in wakefulness: up to 69%
Sprague-Dawley rats; 1.0 nmole i.c.v., rats
  share of first hour of recording spent in wakefulness: ≤ 87%
Sprague-Dawley rats; fourth hour post injection, rats
  rebound in amount of non-REM sleep, increase vs. saline: 48%
Sprague-Dawley rats; i.c.v., rats, compared to saline group
  mean duration of wakefulness episodes: significant increase
Sprague-Dawley rats; [5]
  amount of REM sleep: significantly reduced
  amount of slow wave sleep stage 1 (SWS1): significantly reduced
  amount of slow wave sleep stage 2 (SWS2): significantly reduced
Sprague-Dawley rats; second hour post injection, rats
  rebound in amount of non-REM sleep, increase vs. saline: 20%
Sprague-Dawley rats; single i.c.v. administration
  duration of arousal effect: within the first hour post injection
[3]
  doses producing maximal thymidine incorporation: 0.1 to 10 nM
[3]; 3 h incubation
  thymidine incorporation: dose-dependent stimulation
C57Bl/6 mice [4]
  number of marbles buried: dose-dependently reduced
